# Legend:
# H358 cells = assay: MTT assay, H358; format: cell-based; details: Homo sapiens, NCI-H358, 48 h
# Experimental: Cell density measurements were performed using a hemocytometer to count reproductive cells resistant to staining with trypan blue. Approximately 20,000 cells were plated into each well of 96-well flat-bottomed micro-titer plates. After 12 h or 24 h incubation at 37° C., medium containing either COH-SR4 (ranging 0-200 μM) or elesclomol (ranging 0-20 μM) were added to the cells. After 24 h, 48 h or 96 h incubation, 20 μL of 5 mg/mL MTT were introduced to each well and incubated for 2 h. The plates were centrifuged and medium was decanted. Cells were subsequently dissolved in 100 μl DMSO with gentle shaking for 2 h at room temperature, followed by measurement of OD570 (91).
# The effect of COH-SR4 was first examined in a NCI panel of cancer cell lines, the results of which indicated good activity of COH-SR4 towards lung cancer (FIG. 78A). […] Values are presented as mean±SD from two separate determinations with eight replicates each (n=16) (FIG. 78B). […] Standard colony-forming assay was performed and the colonies were counted using Innotech Alpha Imager HP. […] TUNEL assay was performed using Promega fluorescence detection kit and examined using Zeiss LSM 510 META laser-scanning fluorescence microscope with filters 520 and 620 nm. […]
# HIF-1α = HIF-1α protein expression in U251, immunoblotting; format: cell-based; details: U251, 1-10 μM
# Experimental: U251 cells were incubated with various concentrations of COH-SR4 (1˜10 μM). Whole-cell lysates were analyzed by immunoblotting with antibodies against HIF-1α. GAPDH was used as a loading control.
# [1] = test system: CDK2, CDK4, cyclin A, cyclin B1, cyclin E1, p27; assay: Cell cycle regulator proteins in H358 and H520, Western-blot; format: cell-based, human; details: 24 h
# Experimental: (§1) Cell or tissue proteins were extracted with cell lysis buffer (Cell Signaling Technology) and protein concentration was determined using the DC Protein Assay kit (Bio-Rad, Hercules, Calif., USA). Equal amount of proteins (˜40 μg) were loaded onto 4-15% Criterion TGX gels (Bio-Rad, Hercules, Calif.), resolved by SDS-PAGE electrophoresis, and then transferred onto nitrocellulose membranes for immunoblotting. Membranes were blocked with 5% skimmed milk in Tris-buffered saline containing 0.05% Tween 20 before incubation overnight at 4° C. with desired primary antibodies. Immuno-reactive proteins were visualized by peroxidase-labeled secondary antibodies and ECL system (Western Lightning Chemiluminescence Reagent, Perkin-Elmer, Mass., USA). Equal loading of proteins was confirmed by stripping and re-probing the membranes with either β-actin or GAPDH antibodies. Band intensities were quantified using a densitometer (Quantity One, Bio-Rad, Hercules, Calif.).
# In the context of the elevation of GSTs in lung cancer, the impact of COH-SR4 on the catalytic activity of GSTs towards 1-chloro 2,4-dinitro benzene (CDNB), a model substrate used for GST activity was analyzed. GST activity towards 1-chloro 2,4-dinitro benzene (CDNB) and its inhibition by COH-SR4 was performed in 28000×g crude supernatant prepared from H1417, H1618, H520 and H358 cells. […]
# SK-MEL2 = assay: Intracellular ATP production, luminescence kit; format: cell-based, human; details: 5 μM, less than 1 h
# Experimental: ATP production from cells treated with test compounds were measured using the Luminescent ATP Detection Assay Kit. AMP, ATP and ADP were measured by UV-HPLC.
# One of the consequences of mitochondria uncoupling is decrease intracellular ATP production, leading to increased AMP:ATP ratio and triggering activation of the energy-sensitive enzyme AMPK. It has been previously shown that COH-SR4 indirectly activates AMPK in a time- and dose-dependent manner in both HepG2 cells and 3T3-adipocytes. […] In melanomas, mutation rates for BRAF NRAS and LKB1 are 50-70%, 5-30%, and 10%, respectively. […] AMPK activation may cause a cell cycle arrest associated with stabilization of p53 and the cyclin-dependent kinase inhibitors p21^WAF1 and p27^CIP1.
# p38 MAPK, ERK1/2, JNK = assay: MAPK/ERK signaling in melanoma cells, Western blotting; format: cell-based; details: 0-10 μM; 5 μM 0-24 h
# Experimental: as §1, with “Equal loading of proteins was confirmed by stripping and re-probing the membranes with either β-actin or GAPDH antibodies.” left out
# To investigate whether COH-SR4 affected the MAPK/ERK signaling pathway in human melanoma, the phosphorylation levels of p38 MAPK (T^180/Y^182), ERK1/2 (T^202/Y^204), and pJNK (T^183/Y^185), in A101D, A2058, SK-Mel-5, SK-MEL-28 and B16-F0 melanoma cells were examined after COH-SR4 treatment at various doses (0-10 μM) (FIG. 76A) or at a dose of 5 μM at various time points (0-24 h) (FIG. 76B). Total proteins were isolated and analyzed by Western blotting.
# HUVEC cells = assay: HUVEC cytotoxicity; format: cell-based; details: 48 hours, up to 10 μM
# Experimental: HUVEC were treated with COH-SR4 at a concentration from 0.1˜100 μM for 48 hours.
smiles,measurement,setting,value
"O=C(Nc1cc(Cl)cc(Cl)c1)Nc1cc(Cl)cc(Cl)c1 [COH-SR4, 1,3-bis(3,5-dichlorophenyl) urea]",IC50,H358 cells,2.1 ± 0.2 µM
same,HIF-1α protein expression,HIF-1α,inhibited HIF-1α protein expression
same,protein level of p27,[1],up-regulated
same,"protein levels of CDK2, CDK4, cyclin A, cyclin B1 and cyclin E1",[1],"decreased the protein levels of CDK2, CDK4, cyclin A, cyclin B1 and cyclin E1"
same,intracellular ATP production,SK-MEL2,rapid decline
same,phosphorylation of p38 MAPK and ERK1/2,"p38 MAPK, ERK1/2, JNK",dose- and time dependent increase in the levels of phosphorylation of p38 MAPK (T^180/Y^182) and ERK1/2 (T^202/Y^204)
same,cytotoxicity to HUVEC cells,HUVEC cells,almost no cytotoxicity
